From ChEMBL document CHEMBL4507299, “Data for DCP probe PF-04554878” (2021)

What was measured:
[1] = molecular target: Serine/threonine-protein kinase MARK2 (Homo sapiens) (UniProt Q7KZI7)
Focal adhesion kinase 1 = Focal adhesion kinase 1 (Homo sapiens, UniProt Q05397)
[2] = molecular target: Serine/threonine-protein kinase PAK 4 (Homo sapiens) (UniProt O96013); assay: PAK4 Invitrogen kinase activity assay; conditions: Compound concentration 1.0 uM
[3] = molecular target: Proto-oncogene tyrosine-protein kinase Src (Homo sapiens, UniProt P12931)
[4] = molecular target: Rho-associated protein kinase 1 (Homo sapiens) (UniProt Q13464)
[5] = system: Phosphatidylinositol 4,5-bisphosphate 3-kinase catalytic subunit alpha isoform (Homo sapiens), P42336 [C420R]
[6] = molecular target: 5-hydroxytryptamine receptor 6 (Homo sapiens) (UniProt P50406); conditions: Compound concentration 10.0 uM
[7] = molecular target: Platelet-derived growth factor receptor alpha (Homo sapiens) (UniProt P16234)
[8] = molecular target: Fibroblast growth factor receptor 1 (Homo sapiens) (UniProt P11362)
[9] = molecular target: SRSF protein kinase 1 (Homo sapiens) (UniProt Q96SB4)
[10] = system: Phosphatidylinositol 4,5-bisphosphate 3-kinase catalytic subunit alpha isoform (Homo sapiens), P42336 [H1047Y]
[11] = molecular target: Serine/threonine-protein kinase WNK4 (Homo sapiens) (UniProt Q96J92)
[12] = molecular target: Interleukin-1 receptor-associated kinase 3 (Homo sapiens) (UniProt Q9Y616)
[13] = molecular target: NT-3 growth factor receptor (Homo sapiens) (UniProt Q16288)
[14] = molecular target: LIM domain kinase 2 (Homo sapiens) (UniProt P53671)
[15] = system: Tyrosine-protein kinase ABL1 (Homo sapiens), P00519 [F317L]
[16] = molecular target: Dual specificity mitogen-activated protein kinase kinase 2 (Homo sapiens) (UniProt P36507)
[17] = molecular target: T1, Serine/threonine-protein kinase Chk1 (Homo sapiens) (UniProt O14757)
T1 sequence (whole entry): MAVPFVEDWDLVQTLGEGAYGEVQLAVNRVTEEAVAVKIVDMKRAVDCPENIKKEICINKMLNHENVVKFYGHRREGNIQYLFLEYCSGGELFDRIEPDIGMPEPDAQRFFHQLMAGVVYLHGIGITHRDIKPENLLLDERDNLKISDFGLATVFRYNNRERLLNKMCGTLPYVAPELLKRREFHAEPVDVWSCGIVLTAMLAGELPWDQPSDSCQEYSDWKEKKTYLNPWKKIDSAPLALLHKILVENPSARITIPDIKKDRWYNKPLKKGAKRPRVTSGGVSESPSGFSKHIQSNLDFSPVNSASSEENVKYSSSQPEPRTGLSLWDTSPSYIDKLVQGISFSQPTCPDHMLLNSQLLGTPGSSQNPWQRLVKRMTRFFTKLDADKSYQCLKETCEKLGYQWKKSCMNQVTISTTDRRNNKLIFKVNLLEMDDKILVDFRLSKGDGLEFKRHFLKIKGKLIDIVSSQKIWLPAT

[18] = molecular target: Glycogen synthase kinase-3 alpha (Homo sapiens) (UniProt P49840)
[19] = molecular target: Rhodopsin kinase GRK7 (Homo sapiens) (UniProt Q8WTQ7)
[20] = molecular target: Dual serine/threonine and tyrosine protein kinase (Homo sapiens) (UniProt Q6XUX3)
[21] = molecular target: Serine/threonine-protein kinase 4 (Homo sapiens) (UniProt Q13043)
[22] = molecular target: Mitogen-activated protein kinase 6 (Homo sapiens) (UniProt Q16659)
[23] = molecular target: Activin receptor type-2A (Homo sapiens) (UniProt P27037)
[24] = molecular target: Protein kinase C beta type (Homo sapiens) (UniProt P05771); assay: PKCbeta II Invitrogen kinase activity assay; conditions: Compound concentration 1.0 uM
[25] = molecular target: Sigma non-opioid intracellular receptor 1 (Homo sapiens) (UniProt Q99720); conditions: Compound concentration 10.0 uM
[26] = molecular target: Dual specificity testis-specific protein kinase 1 (Homo sapiens) (UniProt Q15569)
[27] = molecular target: MAP/microtubule affinity-regulating kinase 4 (Homo sapiens) (UniProt Q96L34)
[28] = molecular target: Tyrosine-protein kinase HCK (Homo sapiens) (UniProt P08631)
[29] = molecular target: Mitogen-activated protein kinase kinase kinase 20 (Homo sapiens) (UniProt Q9NYL2)
[30] = molecular target: Serine/threonine-protein kinase 17B (Homo sapiens) (UniProt O94768)
[31] = molecular target: Dual specificity mitogen-activated protein kinase kinase 5 (Homo sapiens) (UniProt Q13163)
[32] = molecular target: MAP kinase-interacting serine/threonine-protein kinase 2 (Homo sapiens) (UniProt Q9HBH9)
[33] = molecular target: Cyclin-dependent kinase 11B (Homo sapiens) (UniProt P21127)
[34] = molecular target: Serine/threonine-protein kinase Nek9 (Homo sapiens) (UniProt Q8TD19)
[35] = molecular target: Tyrosine-protein kinase ABL1 (Homo sapiens, UniProt P00519)
[36] = molecular target: G protein-coupled receptor kinase 4 (Homo sapiens) (UniProt P32298)
[37] = Compound concentration 100.0 nM
[38] = Compound concentration 1000.0 nM

G protein-coupled receptor kinase 4 (Homo sapiens), sequence (P32298 whole entry, looked up): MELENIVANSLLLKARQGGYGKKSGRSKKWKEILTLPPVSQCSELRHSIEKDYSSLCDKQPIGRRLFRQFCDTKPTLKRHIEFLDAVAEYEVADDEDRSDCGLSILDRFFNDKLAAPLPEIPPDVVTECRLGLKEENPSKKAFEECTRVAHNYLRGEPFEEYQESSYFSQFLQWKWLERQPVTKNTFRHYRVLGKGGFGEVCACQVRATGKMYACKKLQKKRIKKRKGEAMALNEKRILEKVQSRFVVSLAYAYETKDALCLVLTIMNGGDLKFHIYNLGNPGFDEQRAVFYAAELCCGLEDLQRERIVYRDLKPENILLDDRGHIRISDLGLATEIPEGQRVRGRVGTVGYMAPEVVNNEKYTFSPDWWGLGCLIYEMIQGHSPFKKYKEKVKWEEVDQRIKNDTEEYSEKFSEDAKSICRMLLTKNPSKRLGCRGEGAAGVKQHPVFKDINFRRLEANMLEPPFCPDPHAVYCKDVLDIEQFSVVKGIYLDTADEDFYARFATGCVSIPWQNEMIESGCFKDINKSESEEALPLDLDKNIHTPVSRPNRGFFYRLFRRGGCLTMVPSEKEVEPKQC
Mitogen-activated protein kinase kinase kinase 20 (Homo sapiens), sequence (Q9NYL2 2-800 limits assumed): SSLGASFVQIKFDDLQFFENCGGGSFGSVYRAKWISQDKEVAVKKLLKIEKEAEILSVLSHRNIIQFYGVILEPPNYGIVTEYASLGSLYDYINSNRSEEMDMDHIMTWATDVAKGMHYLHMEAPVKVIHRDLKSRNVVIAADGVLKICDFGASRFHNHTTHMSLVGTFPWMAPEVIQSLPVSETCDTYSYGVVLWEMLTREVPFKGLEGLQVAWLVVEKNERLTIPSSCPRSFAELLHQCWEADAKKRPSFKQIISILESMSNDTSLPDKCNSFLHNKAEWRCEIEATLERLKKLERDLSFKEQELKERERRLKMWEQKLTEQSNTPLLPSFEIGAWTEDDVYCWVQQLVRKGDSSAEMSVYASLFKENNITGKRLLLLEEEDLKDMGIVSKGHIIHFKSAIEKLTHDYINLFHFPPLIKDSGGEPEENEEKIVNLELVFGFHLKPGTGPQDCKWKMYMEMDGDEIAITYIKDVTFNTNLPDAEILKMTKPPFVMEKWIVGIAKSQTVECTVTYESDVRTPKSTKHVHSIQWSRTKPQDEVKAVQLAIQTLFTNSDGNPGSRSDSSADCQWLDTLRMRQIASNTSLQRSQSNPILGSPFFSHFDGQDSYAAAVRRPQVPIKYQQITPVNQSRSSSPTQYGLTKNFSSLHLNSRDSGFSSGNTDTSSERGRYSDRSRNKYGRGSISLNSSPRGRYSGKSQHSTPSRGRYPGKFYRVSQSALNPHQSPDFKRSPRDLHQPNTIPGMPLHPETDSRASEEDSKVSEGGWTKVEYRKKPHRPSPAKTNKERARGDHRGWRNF
Phosphatidylinositol 4,5-bisphosphate 3-kinase catalytic subunit alpha isoform (Homo sapiens), P42336 [H1047Y], sequence (P42336 whole entry H1047Y, canonical isoform): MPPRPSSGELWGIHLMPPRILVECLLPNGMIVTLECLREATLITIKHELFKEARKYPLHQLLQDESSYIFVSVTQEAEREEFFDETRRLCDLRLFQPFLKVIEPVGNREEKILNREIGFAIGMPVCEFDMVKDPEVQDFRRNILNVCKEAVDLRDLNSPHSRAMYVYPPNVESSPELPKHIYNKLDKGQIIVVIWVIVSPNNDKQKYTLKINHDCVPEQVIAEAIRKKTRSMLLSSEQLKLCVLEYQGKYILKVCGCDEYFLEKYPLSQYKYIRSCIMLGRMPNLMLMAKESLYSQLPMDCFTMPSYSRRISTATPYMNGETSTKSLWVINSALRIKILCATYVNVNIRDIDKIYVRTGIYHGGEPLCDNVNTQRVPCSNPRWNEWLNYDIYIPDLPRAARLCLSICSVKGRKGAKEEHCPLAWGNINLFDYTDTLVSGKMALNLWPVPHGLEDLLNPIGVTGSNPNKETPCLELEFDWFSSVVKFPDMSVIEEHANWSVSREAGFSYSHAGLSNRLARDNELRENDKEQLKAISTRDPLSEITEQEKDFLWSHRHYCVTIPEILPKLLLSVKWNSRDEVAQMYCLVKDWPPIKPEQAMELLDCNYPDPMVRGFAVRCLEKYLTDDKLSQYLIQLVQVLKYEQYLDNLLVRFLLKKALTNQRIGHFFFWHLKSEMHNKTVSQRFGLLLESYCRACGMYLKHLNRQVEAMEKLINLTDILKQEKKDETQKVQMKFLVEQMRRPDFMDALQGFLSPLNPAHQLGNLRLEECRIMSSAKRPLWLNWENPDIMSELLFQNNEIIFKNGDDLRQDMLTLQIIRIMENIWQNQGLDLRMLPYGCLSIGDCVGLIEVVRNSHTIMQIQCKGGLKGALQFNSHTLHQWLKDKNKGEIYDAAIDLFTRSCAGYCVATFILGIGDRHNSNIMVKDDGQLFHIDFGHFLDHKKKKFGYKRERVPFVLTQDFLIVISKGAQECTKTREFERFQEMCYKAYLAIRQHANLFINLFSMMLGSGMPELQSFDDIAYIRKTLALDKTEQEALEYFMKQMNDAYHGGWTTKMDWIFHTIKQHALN
Glycogen synthase kinase-3 alpha (Homo sapiens), sequence (P49840 2-483 limits assumed): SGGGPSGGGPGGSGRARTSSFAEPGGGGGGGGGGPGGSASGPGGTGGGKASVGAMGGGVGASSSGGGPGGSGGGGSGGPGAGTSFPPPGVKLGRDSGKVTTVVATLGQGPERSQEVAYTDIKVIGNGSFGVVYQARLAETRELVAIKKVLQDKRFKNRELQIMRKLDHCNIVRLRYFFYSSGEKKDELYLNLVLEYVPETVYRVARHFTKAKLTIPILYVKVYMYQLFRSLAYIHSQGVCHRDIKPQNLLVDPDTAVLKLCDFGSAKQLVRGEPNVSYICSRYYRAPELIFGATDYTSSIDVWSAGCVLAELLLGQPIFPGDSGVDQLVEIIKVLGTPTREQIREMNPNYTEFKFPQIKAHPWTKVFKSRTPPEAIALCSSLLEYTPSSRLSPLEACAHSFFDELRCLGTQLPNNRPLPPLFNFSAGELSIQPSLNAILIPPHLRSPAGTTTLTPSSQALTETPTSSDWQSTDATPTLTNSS
Tyrosine-protein kinase ABL1, sequence (P00519 whole entry): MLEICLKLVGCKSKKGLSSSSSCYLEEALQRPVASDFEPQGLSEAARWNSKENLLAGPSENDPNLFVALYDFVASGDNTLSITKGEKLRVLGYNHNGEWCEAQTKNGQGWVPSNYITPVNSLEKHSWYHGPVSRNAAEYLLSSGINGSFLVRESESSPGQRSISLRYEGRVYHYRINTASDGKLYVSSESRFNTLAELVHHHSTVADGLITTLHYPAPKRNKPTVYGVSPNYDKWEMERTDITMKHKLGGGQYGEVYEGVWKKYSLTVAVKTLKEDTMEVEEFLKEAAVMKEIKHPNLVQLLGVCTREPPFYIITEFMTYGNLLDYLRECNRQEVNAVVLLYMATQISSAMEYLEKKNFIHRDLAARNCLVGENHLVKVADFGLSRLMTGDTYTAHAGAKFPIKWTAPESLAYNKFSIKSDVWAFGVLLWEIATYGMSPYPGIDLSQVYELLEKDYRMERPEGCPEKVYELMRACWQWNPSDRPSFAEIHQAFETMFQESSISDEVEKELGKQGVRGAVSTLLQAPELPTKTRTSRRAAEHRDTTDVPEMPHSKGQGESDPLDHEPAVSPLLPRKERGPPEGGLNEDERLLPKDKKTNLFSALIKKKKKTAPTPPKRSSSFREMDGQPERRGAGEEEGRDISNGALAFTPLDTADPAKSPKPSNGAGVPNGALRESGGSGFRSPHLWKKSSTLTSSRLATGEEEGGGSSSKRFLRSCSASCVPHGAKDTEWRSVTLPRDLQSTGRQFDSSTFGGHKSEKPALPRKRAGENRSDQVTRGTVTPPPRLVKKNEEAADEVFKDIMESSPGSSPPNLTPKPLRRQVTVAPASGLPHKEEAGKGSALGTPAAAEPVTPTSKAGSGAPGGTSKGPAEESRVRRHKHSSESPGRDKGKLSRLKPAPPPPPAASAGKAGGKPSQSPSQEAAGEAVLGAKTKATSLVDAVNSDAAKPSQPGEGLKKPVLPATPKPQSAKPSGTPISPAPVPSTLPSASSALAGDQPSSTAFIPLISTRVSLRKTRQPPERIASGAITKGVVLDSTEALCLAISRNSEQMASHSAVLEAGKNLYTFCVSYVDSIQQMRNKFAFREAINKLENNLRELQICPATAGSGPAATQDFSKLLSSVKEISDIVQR
Rhodopsin kinase GRK7 (Homo sapiens), sequence (Q8WTQ7 whole entry): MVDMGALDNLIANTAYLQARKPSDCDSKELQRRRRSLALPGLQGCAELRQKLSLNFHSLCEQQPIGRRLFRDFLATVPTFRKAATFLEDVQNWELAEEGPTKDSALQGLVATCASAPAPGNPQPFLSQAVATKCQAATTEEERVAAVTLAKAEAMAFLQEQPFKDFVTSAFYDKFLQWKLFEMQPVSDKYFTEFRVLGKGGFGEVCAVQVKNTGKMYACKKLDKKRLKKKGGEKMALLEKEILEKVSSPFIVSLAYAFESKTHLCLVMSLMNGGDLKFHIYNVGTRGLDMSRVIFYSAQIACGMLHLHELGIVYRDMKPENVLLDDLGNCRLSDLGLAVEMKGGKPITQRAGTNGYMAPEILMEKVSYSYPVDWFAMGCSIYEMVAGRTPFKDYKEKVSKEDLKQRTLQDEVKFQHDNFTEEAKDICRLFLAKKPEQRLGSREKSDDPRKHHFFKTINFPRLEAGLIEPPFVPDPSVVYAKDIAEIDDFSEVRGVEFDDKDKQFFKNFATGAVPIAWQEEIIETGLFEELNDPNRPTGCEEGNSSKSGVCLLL
5-hydroxytryptamine receptor 6 (Homo sapiens), sequence (P50406 whole entry): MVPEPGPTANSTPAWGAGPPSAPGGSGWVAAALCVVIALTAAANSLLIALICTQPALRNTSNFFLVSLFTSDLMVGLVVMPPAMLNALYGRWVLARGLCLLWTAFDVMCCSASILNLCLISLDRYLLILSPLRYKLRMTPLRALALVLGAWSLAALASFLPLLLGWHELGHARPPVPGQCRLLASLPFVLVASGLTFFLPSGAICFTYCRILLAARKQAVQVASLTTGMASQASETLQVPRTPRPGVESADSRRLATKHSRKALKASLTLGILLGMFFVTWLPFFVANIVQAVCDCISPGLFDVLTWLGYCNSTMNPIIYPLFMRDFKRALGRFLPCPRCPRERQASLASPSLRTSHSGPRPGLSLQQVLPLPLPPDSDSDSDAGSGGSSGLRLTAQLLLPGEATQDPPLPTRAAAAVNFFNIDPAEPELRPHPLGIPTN

## CNC(=O)c1ccc(Nc2ncc(C(F)(F)F)c(NCc3nccnc3N(C)S(C)(=O)=O)n2)cc1 [DEFACTINIB]
[1]; [37]
  residual activity: 66%
Focal adhesion kinase 1; [37]
  residual activity: 0.2%
[2]
  inhibition: 69%
[3]; [37]
  residual activity: 79%
[4]; [37]
  residual activity: 100%
[5]; [37]
  residual activity: 100%
[6]
  inhibition: -8.99%
[7]; [37]
  residual activity: 77%
[8]; [37]
  residual activity: 89%
[9]; [37]
  residual activity: 51%
[10]; [37]
  residual activity: 100%
[11]; [37]
  residual activity: 81%
[12]; [37]
  residual activity: 70%
[13]; [37]
  residual activity: 41%
[14]; [37]
  residual activity: 87%
[15]; [37]
  residual activity: 100%
[16]; [37]
  residual activity: 100%
[17]; [37]
  residual activity: 100%
[18]; [37]
  residual activity: 83%
[19]; [37]
  residual activity: 97%
[20]; [37]
  residual activity: 87%
[21]; [37]
  residual activity: 97%
[22]; [37]
  residual activity: 71%
[23]; [37]
  residual activity: 90%
[24]
  inhibition: 15%
[25]
  inhibition: 40.1%
[26]; [37]
  residual activity: 96%
[27]; [37]
  residual activity: 83%
[28]; [37]
  residual activity: 100%
[29]; [37]
  residual activity: 100%
[30]; [37]
  residual activity: 100%
[31]; [37]
  residual activity: 89%
[32]; [37]
  residual activity: 100%
[33]; [37]
  residual activity: 95%
[34]; [37]
  residual activity: 80%
[35]; [37]
  residual activity: 88%
[36]; [37]
  residual activity: 98%

## CN(c1ccnc(CNc2nc(Nc3ccc4c(c3)CC(=O)N4)ncc2C(F)(F)F)n1)S(C)(=O)=O [PF-00911705]
[1]; [38]
  residual activity: 47%
Focal adhesion kinase 1; [38]
  residual activity: 4.9%
[3]; [38]
  residual activity: 60%
[4]; [38]
  residual activity: 49%
[5]; [38]
  residual activity: 91%
[6]
  inhibition: 11.1%
[7]; [38]
  residual activity: 58%
[8]; [38]
  residual activity: 82%
[9]; [38]
  residual activity: 17%
[10]; [38]
  residual activity: 85%
[11]; [38]
  residual activity: 0%
[12]; [38]
  residual activity: 11%
[13]; [38]
  residual activity: 45%
[14]; [38]
  residual activity: 94%
[15]; [38]
  residual activity: 71%
[16]; [38]
  residual activity: 82%
[17]; [38]
  residual activity: 57%
[18]; [38]
  residual activity: 64%
[19]; [38]
  residual activity: 29%
[20]; [38]
  residual activity: 53%
[21]; [38]
  residual activity: 100%
[22]; [38]
  residual activity: 66%
[23]; [38]
  residual activity: 100%
[25]
  inhibition: 23.1%
[26]; [38]
  residual activity: 97%
[27]; [38]
  residual activity: 63%
[28]; [38]
  residual activity: 100%
[29]; [38]
  residual activity: 100%
[30]; [38]
  residual activity: 48%
[31]; [38]
  residual activity: 48%
[32]; [38]
  residual activity: 91%
[33]; [38]
  residual activity: 91%
[34]; [38]
  residual activity: 63%
[35]; [38]
  residual activity: 77%
[36]; [38]
  residual activity: 10%
